The source made the active and inactive calls. No cut-off for these calls is given here.
Experiments:
[1] = Volume of distribution at steady state in ICR mouse at 3 mg/kg, iv; type: ADME, organism-based; details: in vivo, read-out: Vdss
NCI-H358 [2] = assay: Induction of apoptosis in human NCI-H358 cells 1 uM incubated for 48 hrs by Annexin V-FITC/PI staining based flow cytometry; type: functional, cell-based
SW1573 = assay: Anticancer activity against human SW1573 cells incubated for 72 hrs; type: functional, cell-based
NCI-H23 [3] = assay: Induction of apoptosis in human NCI-H23 cells assessed as early apoptotic cells at 0.01 uM incubated for 48 hrs by Annexin V-FITC/PI staining based flow cytometry (reference value: 4.17 %); type: functional
HPAF-II [4] = assay: Induction of apoptosis in human HPAF-II cells assessed as late apoptotic cells at 0.01 uM incubated for 48 hrs by Annexin V-FITC/PI staining based flow cytometry (reference value: 1.28 %); type: functional
HEK-293T = assay: Cytotoxicity against HEK293T cells incubated for 72 hrs; type: toxicity, cell-based; details: human
[5] = Cmax in ICR mouse at 10 mg/kg, po; type: ADME, organism-based; details: in vivo
HPAF-II [6] = assay: Downregulation of phosphorylated ERK expression in human HPAF-II cells at 0.1 to 1 uM incubated for 48 hrs by Western blot analysis; type: functional, cell-based; details: dose 0.1-1 µM
NCI-H23 [7] = assay: Induction of apoptosis in human NCI-H23 cells assessed as late apoptotic cells at 1 uM incubated for 48 hrs by Annexin V-FITC/PI staining based flow cytometry (reference value: 2.89 %); type: functional
NCI-H1373 = assay: Anticancer activity against human NCI-H1373 cells incubated for 72 hrs; type: functional, cell-based
NCI-H358 [8] = assay: Anticancer activity against human NCI-H358 cells incubated for 72 hrs; type: functional, cell-based
[9] = target: T1, Nuclear receptor ROR-gamma (Homo sapiens) (UniProt P51449); assay: Antagonist activity at Gal4-tagged ROR-gamma LBD (unknown origin) transfected in HEK293T cells assessed as reduction in luciferase activity at 0.1 to 1 uM incubated for 24 hrs by Renilla luciferase reporter gene assay; type: cell-based; details: filed as antagonist, dose 0.1-1 µM
T1 sequence (whole entry): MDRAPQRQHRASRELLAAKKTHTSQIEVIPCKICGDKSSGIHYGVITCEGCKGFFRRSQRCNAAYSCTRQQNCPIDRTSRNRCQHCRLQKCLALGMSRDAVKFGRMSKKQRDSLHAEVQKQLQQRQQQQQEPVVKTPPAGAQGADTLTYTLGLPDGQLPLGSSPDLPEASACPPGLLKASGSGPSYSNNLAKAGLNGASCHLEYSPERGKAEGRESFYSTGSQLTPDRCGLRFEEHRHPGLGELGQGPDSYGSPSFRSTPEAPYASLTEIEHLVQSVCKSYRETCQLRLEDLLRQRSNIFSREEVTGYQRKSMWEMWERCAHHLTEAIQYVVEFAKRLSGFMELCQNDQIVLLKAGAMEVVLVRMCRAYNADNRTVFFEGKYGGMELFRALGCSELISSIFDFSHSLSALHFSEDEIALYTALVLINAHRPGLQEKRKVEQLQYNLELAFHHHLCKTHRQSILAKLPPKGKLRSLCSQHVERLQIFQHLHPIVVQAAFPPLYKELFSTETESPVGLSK

A549 = assay: Anticancer activity against human A549 cells incubated for 72 hrs; type: functional, cell-based
HPAF-II [10] = assay: Induction of apoptosis in human HPAF-II cells assessed as early apoptotic cells at 0.1 uM incubated for 48 hrs by Annexin V-FITC/PI staining based flow cytometry (reference value: 0.90 %); type: functional
NCI-H23 [11] = assay: Induction of apoptosis in human NCI-H23 cells assessed as early apoptotic cells at 1 uM incubated for 48 hrs by Annexin V-FITC/PI staining based flow cytometry (reference value: 4.17 %); type: functional
NCI-H23 [12] = assay: Induction of apoptosis in human NCI-H23 cells assessed as necrotic cells at 0.1 uM incubated for 48 hrs by Annexin V-FITC/PI staining based flow cytometry (reference value: 0.78 %); type: functional
[13] = AUC (infinity) in ICR mouse at 3 mg/kg, iv; type: ADME, organism-based; details: in vivo
[14] = Clearance in ICR mouse at 3 mg/kg, iv; type: ADME, organism-based; details: in vivo
HPAF-II [15] = assay: Downregulation of AKT phosphorylation level in human HPAF-II cells harboring siROR-gamma at 0.1 uM by Western blot analysis; type: functional, cell-based
HPAF-II [16] = assay: Downregulation of phosphorylated MEK expression in human HPAF-II cells at 0.1 to 1 uM incubated for 48 hrs by Western blot analysis; type: functional, cell-based; details: dose 0.1-1 µM
[17] = AUC (infinity) in ICR mouse at 10 mg/kg, po; type: ADME, organism-based; details: in vivo
HPAF-II [18] = assay: Induction of apoptosis in human HPAF-II cells assessed as early apoptotic cells at 10 uM incubated for 48 hrs by Annexin V-FITC/PI staining based flow cytometry (reference value: 0.90 %); type: functional
HPAF-II [19] = assay: Induction of apoptosis in human HPAF-II cells assessed as early apoptotic cells at 0.01 uM incubated for 48 hrs by Annexin V-FITC/PI staining based flow cytometry (reference value: 0.90 %); type: functional
HPAF-II [20] = assay: Antitumor activity against human HPAF-II cells xenografted in nude Balb/cA mouse assessed as tumor growth inhibition at 150 mg/kg, po qd measured for 12 days relative to control; type: functional; parameters: scale not given: the % may be the effect or the level left; details: time 12 day
HPAF-II [21] = assay: Induction of apoptosis in human HPAF-II cells assessed as necrotic cells at 10 uM incubated for 48 hrs by Annexin V-FITC/PI staining based flow cytometry (reference value: 8.09 %); type: functional
HPAF-II [22] = assay: Antitumor activity against human HPAF-II cells xenografted in nude Balb/cA mouse assessed as tumor growth inhibition at 15 mg/kg, ip qd measured for 12 days relative to control; type: functional; parameters: scale not given: the % may be the effect or the level left; details: time 12 day
[23] = Half life in ICR mouse at 3 mg/kg, iv; type: ADME, organism-based; details: in vivo
HPAF-II [24] = assay: Induction of apoptosis in human HPAF-II cells assessed as reduction in MCL-1 level at 0.1 to 1 uM incubated for 48 hrs by Western blot analysis; type: functional, cell-based; details: dose 0.1-1 µM
HPAF-II [25] = assay: Anticancer activity against human HPAF-II cells incubated for 72 hrs; type: functional, cell-based
HPAF-II [26] = assay: Downregulation of ERK phosphorylation level in human HPAF-II cells harboring siROR-gamma at 0.1 uM by Western blot analysis; type: functional, cell-based
HPAF-II [27] = assay: Induction of apoptosis in human HPAF-II cells assessed as late apoptotic cells at 10 uM incubated for 48 hrs by Annexin V-FITC/PI staining based flow cytometry (reference value: 1.28 %); type: functional
HPAF-II [28] = assay: Induction of apoptosis in human HPAF-II cells assessed as increase in cleaved PARP level at 0.1 to 1 uM incubated for 48 hrs by Western blot analysis; type: functional, cell-based; details: dose 0.1-1 µM
HPAF-II [29] = assay: Cytotoxicity against human HPAF-II cells harboring siROR-gamma assessed as decrease in cell viability at 0.1 uM incubated for 72 hrs by SRB assay; type: functional, cell-based
HPAF-II [30] = assay: Induction of apoptosis in human HPAF-II cells assessed as viable cells at 0.01 uM incubated for 48 hrs by Annexin V-FITC/PI staining based flow cytometry (reference value: 89.73 %); type: functional; details: read-out: Activity
[31] = Tmax in ICR mouse at 10 mg/kg, po; type: ADME, organism-based; details: in vivo

Vd [1]: 5.21 L/kg
Cmax [5]: 114 ng/mL
Activity [9]: Active
AUC(0-inf) [13]: 3050 ng·h/mL
clearance [14]: 16.5 mL/min/kg
AUC(0-inf) [17]: 2050 ng·h/mL
half-life [23]: 4.5 h
Tmax [31]: 2 h
SMILES: C=C(C)[C@@H]1CC[C@]2(C(=O)NCCCN(C)C)CC[C@]3(C)[C@H](CC[C@@H]4[C@@]5(C)CC[C@H](O)C(C)(C)[C@@H]5CC[C@]43C)[C@@H]12
Activity (NCI-H358 [2]): Active
Activity (SW1573): Active
Activity (NCI-H23 [3]): 4.06%
Activity (HPAF-II [4]): 4.48%
Activity (HEK-293T): Non-Toxic
Activity (HPAF-II [6]): Active
Activity (NCI-H23 [7]): 18.15%
Activity (NCI-H1373): Active
Activity (NCI-H358 [8]): Active
Activity (A549): Active
Activity (HPAF-II [10]): 23.73%
Activity (NCI-H23 [11]): 67.63%
Activity (NCI-H23 [12]): 4.71%
Activity (HPAF-II [15]): Active
Activity (HPAF-II [16]): Active
Activity (HPAF-II [18]): 48.86%
Activity (HPAF-II [19]): 5.34%
Activity (HPAF-II [20]): 39%
Activity (HPAF-II [21]): 3.33%
Activity (HPAF-II [22]): 76%
Activity (HPAF-II [24]): Active
Activity (HPAF-II [25]): Active
Activity (HPAF-II [26]): Active
Activity (HPAF-II [27]): 42.77%
Activity (HPAF-II [28]): Active
Activity (HPAF-II [29]): inactive
viability at 0.01 µM (HPAF-II [30]): 82.6%

Source: ChEMBL document CHEMBL5620362 (Eur J Med Chem, 2023)
